Reference: patent US6476074B1, “Method and composition for treatment of erectile dysfunction” (Synphora AB, priority 1997, dated 2002)

Experiments:
anaesthetized rats = test: Reduction of blood pressure in anaesthetized rats on intravenous infusion; assay type: in vivo, rat; details: n=3, Mean ± SEM
Excerpt: The vasodilatory effect of the prostaglandin analogues was also studied in the rat by registering the blood pressure reducing effect. This is a relevant […] model for showing general vasodilatory effect of importance for inducing erection since vasodilation in penis is needed for achieving erection. Rats were anaesthetized with a mixture of ketarnine and xylazin and the prostaglandin analogues were infused intravenously. The blood pressure was continuously registered in a femoral artery. Each analogue was infused in 3 escalating doses in the same animal. […] In all experiments the blood pressure reduction was transient and the blood pressure increased immediately after termination of the infusion. The analogues were used both as esters and acids for the experiments.

cat eyes [1] = test: Irritant effect in cat eyes (behavioural model, eyelid closure); assay type: in vivo; details: for Maximum irritative effect: scale 0-3, Mean ± SEM (n = 3-6); for irritant effect (in words): cat eye, topical single dose
Method: The irritant effect of the prostaglandin analogues was tested using a behavioural model in cats. In this model the irritant effect on the eye is studied by registering the degree of eyelid closure and the behaviour of the animals. Compounds that cause discomfort and pain in the eye cause the animals to close their eyes. The analogues were applied as carboxylic acid esters, to enhance bioavailability, topically on the eye as a single dose at different dose levels. The animals were then followed for several hours at regular intervals. Each compound and dose was tested on a group of 3-6 cats. At least 3 days elapsed between two consecutive tests on the same animals. An arbitrary scale from 0 (absence of irritation) to 3 (marked irritation), with half steps was used.

cat eyes [2] = test: as above; assay type: in vivo; details: cat eye
[3] = test system: rabbit penile blood vessels; test: Vasodilatory effect on isolated rabbit penile blood vessels precontracted with norepinephrine (myograph); assay type: cell-based; details: FIG. 2; precontracted with 10^−6 M norepinephrine; normalized to papaverine
Method: The solution also contained indomethacin at a final concentration of about 3 μM, and was continuously bubbled by 95% O2 and 5%CO2. The temperature was kept constant at 37° C. The vessels were stretched and then precontracted using 10^-6 M norepinephrine, and the vasorelaxant effect of the prostaglandin analogues was normalized by comparing it to that of papaverine in the same preparation. Cumulative concentration-response curves were constructed for the analogues.

rabbits = details: Hall and Jaitly, 1977; cited from earlier work
[4] = test system: human corpus cavernosum tissue; test: Relaxation of isolated human corpus cavernosum tissue precontracted with norepinephrine; assay type: cell-based; details: for Reduction in tension (%): precontracted with 10^−6 M norepinephrine, compared to carbachol (10^−6 M), Mean ± SEM; for Reduction in tension (%) / EC50: n=8; for EC50: relaxation of tissue precontracted with 10^−6 M norepinephrine
Method: Human penile cavernous tissue was obtained fresh from surgery, and representative tissue samples were mounted in smooth muscle tissue baths containing a modified Kreb's solution consisting of NaCl 119 mM, KCl 4.6 mM, MgCl2 1.2 mM, NaH2PO4 1.2 mM, NaHCO3 15 mM, CaCl2 1.5 mM and glucose 11 mM. The solution also contained indomethacin at a final concentration of about 3 μM. The solution was continuously bubbled by 95% O2 and 5% CO2, and the temperature was kept at 37° C.
The tissue preparations were stretched by a force corresponding to 500 mg, and were given a contractile tone by the addition of norepinephrine at a concentration of 10^−6 M. Concentration-response curves were then constructed by adding cumulatively increasing concentrations of the prostaglandin analogues to the bath in a routine way. The relaxant effect was normalized by comparing to that of carbachol in the same preparation.

cat eyes [5] = test: Intraocular pressure in cats by pneumatonometry after topical administration; assay type: in vivo; details: 3 cats, local anaesthesia; before treatment 16.3+/−0.9 mmHg; vehicle eye 16.3 and 15.7 mmHg
Method: To confirm that 19R-OH-PGE2-methyl ester, which is more hydrophilic than PGE1-isopropyl ester, indeed penetrates into the cornea and the intraocular parts of the eye we measured the intraocular pressure in 3 cats under local anaesthesia before and 1 hour after topical administration of the prostaglandin to the eye. The intraocular pressure was measured by pneumatonometry. One eye was treated with the test compound and the other eye received the vehicle only. In the eyes treated topically with 19R-OH-PGE2-methyl ester the intraocular pressure decreased from 16.3+/−0.9 mmHg to 12.7+/−1.2 mmHg, whereas it was 16.3+/−0.9 mmHg and 15.7+/−0.7 mmHg in the control eyes at the same time points. It is well known that prostaglandins reduce the intraocular pressure in cats (Bito et al., 1989), and it can thus be taken as an evidence that the drug has penetrated into the eye. […] Thus the absence of pain and irritation after administration of 18RS-OH-PGE2, 19R-OH-PGE2 and 20OH-PGE2 cannot be explained on the basis of increased hydrophilicity and poor bioavailability.

[6] = log P estimated by thin layer chromatography; assay type: physicochemical; details: estimated from thin layer chromatography with PGF2α isopropyl ester as reference
[7] = reference value used for the TLC estimate; cited from earlier work
[8] = 7.5-10 μg/kg intravenous infusion
[9] = 25-35 μg/kg intravenous infusion

| Compound | Reduction (%) of blood pressure (anaesthetized rats; [8]) [%] | Reduction (%) of blood pressure (anaesthetized rats; [9]) [%] | Maximum irritative effect (cat eyes [1]; Dose 1 μg topically on eye) | Maximum irritative effect (cat eyes [1]; Dose 10 μg topically on eye) | Reduction in tension (%) [4] [%] | Maximum irritative effect (cat eyes [1]; Dose 0.1 μg topically on eye) | further results |
| --- | --- | --- | --- | --- | --- | --- | --- |
| 18RS-OH-PGE2 | 15 ± 3 | 32 ± 2 | – | – | – | – | – |
| CCC(O)CC[C@H](O)/C=C/[C@H]1[C@H](O)CC(=O)[C@@H]1C/C=C\CCCC(=O)OC (stereo partly shown) [18RS-OH-PGE2-me, 18RS-Hydroxy PGE2 Methyl Ester] | – | – | 0.0 ± 0.0 | 0.0 ± 0.0 | – | – | Maximum irritative effect (cat eyes [1]; Dose 3 μg topically on eye): 0.0 ± 0.0; Maximum irritative effect (cat eyes [1]; Dose 30 μg topically on eye): 0.3 ± 0.2; irritant effect (in words) (cat eyes [1]): no or markedly reduced irritant effect, even at doses 1000 times higher than PGE1-isopropyl ester |
| C[C@@H](O)CCC[C@H](O)/C=C/[C@H]1[C@H](O)CC(=O)[C@@H]1C/C=C\CCCC(=O)O [19R-OH-PGE2, 19R-hydroxy-prostaglandin E2] | 31 ± 3 | 43 ± 6 | – | – | 96.9 ± 3.1 | – | irritation by swelling of the ocular structures (in words) (cat eyes [2]): no evidence of such irritation; vasodilatory effect (in words) [3]: the same efficacy in inducing vasodilatation and were also about equipotent; lid closure and irritant effect in rabbit eye (in words) (rabbits): does not cause lid closure in rabbits but induces an irritant effect by inducing swelling of the ocular structures; factor by which concentration-response curves of PGE1 and 19R-OH-PGE2 differ ([4]; FIG. 1, 19R-OH-PGE2 about half to one third as potent as PGE1): 2-3; EC50 [4]: 690 nM |
| COC(=O)CCC/C=C\C[C@H]1C(=O)C[C@@H](O)[C@@H]1/C=C/[C@@H](O)CCC[C@@H](C)O [19R-OH-PGE2-me, 19-R-Hydroxy-prostaglandin E2-Methyl Ester] | – | – | 0.1 ± 0.1 | 0.1 ± 0.1 | – | 0.0 ± 0.0 | Maximum irritative effect (cat eyes [1]; Dose 100 μg topically on eye): 0.7 ± 0.4; irritant effect (in words) (cat eyes [1]): no or markedly reduced irritant effect, even at doses 1000 times higher than PGE1-isopropyl ester; intraocular pressure 1 hour after topical administration (cat eyes [5]): 12.7+/−1.2 mmHg |
| O=C(O)CCC/C=C\C[C@H]1C(=O)C[C@@H](O)[C@@H]1/C=C/[C@@H](O)CCCCCO [20-OH-PGE2, 20-hydroxy PGE2] | 38 ± 3 | 44 ± 0 | – | – | – | – | – |
| COC(=O)CCC/C=C\C[C@H]1C(=O)C[C@@H](O)[C@@H]1/C=C/[C@@H](O)CCCCCO [20-OH-PGE2-me, 20-OH-Prostaglandin E2-Methyl Ester] | – | – | – | 1.2 ± 0.2 | – | – | Maximum irritative effect (cat eyes [1]; Dose 3 μg topically on eye): 0.5 ± 0.0; Maximum irritative effect (cat eyes [1]; Dose 30 μg topically on eye): 1.2 ± 04 |
| C[N+](C)(C)CCOC(N)=O [Carbachol, reference compound] | – | – | – | – | 100.0 ± 0.0 | – | – |
| CCCCC[C@H](O)/C=C/[C@H]1[C@H](O)CC(=O)[C@@H]1CCCCCCC(=O)O [PGE1, prostaglandin E1, reference compound] | 35 ± 5 | 52 ± 3 | 1.6 ± 0.2 | 3.0 ± 0.0 | 90.9 ± 3.7 | 0.6 ± 0.1 | vasodilatory effect (in words) [3]: the same efficacy in inducing vasodilatation and were also about equipotent; EC50 ([4]; Homo sapiens): 250 nM; chromatographic logP [6]: 0.7 |
| CCCCC[C@H](O)/C=C/[C@H]1[C@H](O)CC(=O)[C@@H]1CCCCCCC(=O)OC(C)C [PGE1-ie, PGE1-isopropyl ester, reference compound] | – | – | – | – | – | 1.7 ± 0.3 | Maximum irritative effect (cat eyes [1]; Dose 0.01 μg topically on eye): 0.4 ± 0.2; Maximum irritative effect (cat eyes [1]; Dose 0.3 μg topically on eye): 2.8 ± 0.1 |
| CCCCC[C@H](O)/C=C/[C@@H]1[C@@H](C/C=C\CCCC(=O)OC(C)C)[C@@H](O)C[C@H]1O [PGF2α isopropyl ester] | – | – | – | – | – | – | log P of reference [7]: (log P 4.5). ie = isopropyl ester, me = methyl ester. |
